Experimental findings from BindingDB's records for doi:10.1016/s0960-894x(99)00565-x (Dupont Pharmaceuticals, 1999) are described below.

This test has as its target T1, Gag-Pol polyprotein [588-1027]/[588-1147] (Human immunodeficiency virus 1, UniProt P04585).
T1 construct: 588-1027; 588-1147
The test can be described thus: HIV-1 RT Assay. Conditions: pH 8.2; 37 °C.

One may read the IC50 as the concentration at which inhibition is half-maximal. Read a low IC50 as higher potency.

In the case of `CC(=O)Nc1ccc2c(c1)C(C#CC1CC1)(C(F)(F)F)OC(=O)N2` (configuration not stated), the IC50 was > 2000 nM.

For `CC(=O)Nc1ccc2c(c1)C(C#CC(C)C)(C(F)(F)F)OC(=O)N2` (configuration not stated), the IC50 was > 2000 nM.
